Measured values: ChEMBL document CHEMBL1201862, “PubChem BioAssay data set” (2004)
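Where inhibition never reached the appropriate level, the endpoint shown equals the highest concentration tested. Otherwise, values were interpolated linearly from a five-concentration, 48-hour dose response in 96-well plates. GI50 is the concentration that inhibits growth by half.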 The source made the active and inactive calls. Cut-off read from the data, not from the text of the source: active = GI50 up to about 1.1 µM and inactive = higher.

Legend:
Test in all cases: DTP human tumour cell line panel, 48 h
A549 = test system: A549
UO-31 = test system: UO-31
NCI-H522 = test system: NCI-H522
HT-29 = test system: HT-29
SK-MEL-28 = test system: SK-MEL-28
SR = test system: SR
SK-MEL-5 = test system: SK-MEL-5
U-251 = test system: U-251
OVCAR-4 = test system: OVCAR-4
Malme-3M = test system: Malme-3M
HCT-15 = test system: HCT-15
HCT-116 = test system: HCT-116
NCI-H460 = test system: NCI-H460
HOP-62 = test system: HOP-62
CAKI-1 = test system: CAKI-1
RXF 393 = test system: RXF 393

SMILES | GI50 (A549) | GI50 (UO-31) | GI50 (NCI-H522) | GI50 (HT-29) | GI50 (SK-MEL-28) | GI50 (SR) | GI50 (SK-MEL-5) | GI50 (U-251) | GI50 (OVCAR-4) | GI50 (Malme-3M) | GI50 (HCT-15) [µM] | GI50 (HCT-116) | GI50 (NCI-H460) | GI50 (HOP-62) | GI50 (CAKI-1) | GI50 (RXF 393)
O=C(CSc1nc(-c2ccccc2)c(-c2ccccc2)[nH]1)NNC(=S)Nc1ccccc1 | > 100 µM (inactive) | 71.9 µM (inactive) | 19.2 µM (inactive) | 69.2 µM (inactive) | > 100 µM (inactive) | 57.5 µM (inactive) | 46.1 µM (inactive) | > 100 µM (inactive) | 64 µM (inactive) | > 100 µM (inactive) | > 100 | 97.1 µM (inactive) | > 100 µM (inactive) | > 100 µM (inactive) | 81.7 µM (inactive) | –
COC(=O)C(Cc1cc(OC)c(OC)c(OC)c1)c1ccc(OC)cc1 (configuration not stated) | > 100 µM (inactive) | > 100 µM (inactive) | 90.4 µM (inactive) | > 100 µM (inactive) | > 100 µM (inactive) | – | 45 µM (inactive) | > 100 µM (inactive) | > 100 µM (inactive) | > 100 µM (inactive) | > 100 | > 100 µM (inactive) | > 100 µM (inactive) | > 100 µM (inactive) | > 100 µM (inactive) | > 100 µM (inactive)
Cn1cc(NC(=O)c2cc(NC(=O)Nc3cc(C(=O)Nc4cc(C(=O)NCCC(=N)N)n(C)c4)n(C)c3)cn2C)cc1C(=O)NCCC(=N)N | 29.4 µM (inactive) | 33.1 µM (inactive) | – | > 100 µM (inactive) | 25.4 µM (inactive) | 44.2 µM (inactive) | 17.4 µM (inactive) | 26.6 µM (inactive) | 38.7 µM (inactive) | 24.9 µM (inactive) | > 100 | 37.2 µM (inactive) | 17.3 µM (inactive) | 39.8 µM (inactive) | 30.5 µM (inactive) | 22.4 µM (inactive)
CCOC(=O)C(=O)CC1=Nc2ccccc2SC(c2cccc(C)c2)C1 (configuration not stated) | 21.2 µM (inactive) | 15.4 µM (inactive) | 17.3 µM (inactive) | 15.5 µM (inactive) | 14.6 µM (inactive) | 22.2 µM (inactive) | 18.2 µM (inactive) | 17.1 µM (inactive) | 18 µM (inactive) | 17.3 µM (inactive) | 18.2 | 14.7 µM (inactive) | 19.5 µM (inactive) | 23.9 µM (inactive) | 21.9 µM (inactive) | –
COC(=O)C1=CCC2c3[nH]c4ccccc4c3CCN2C1 (configuration not stated) | > 354 µM (inactive) | – | 154 µM (inactive) | > 354 µM (inactive) | > 354 µM (inactive) | > 354 µM (inactive) | > 354 µM (inactive) | > 354 µM (inactive) | – | > 354 µM (inactive) | > 354 | 242 µM (inactive) | > 354 µM (inactive) | > 354 µM (inactive) | > 354 µM (inactive) | > 354 µM (inactive)
CCOC(=O)C(Cc1ccccc1)NC(=O)c1ccc(/N=N/N(C)C)cc1 (configuration not stated) | > 100 µM (inactive) | > 100 µM (inactive) | > 100 µM (inactive) | > 100 µM (inactive) | > 100 µM (inactive) | > 100 µM (inactive) | > 100 µM (inactive) | > 100 µM (inactive) | > 100 µM (inactive) | > 100 µM (inactive) | > 100 | > 100 µM (inactive) | > 100 µM (inactive) | > 100 µM (inactive) | > 100 µM (inactive) | –
C=C1CC(C/C=C(\C)CC2CC(=C)C(=O)O2)OC1=O (configuration not stated) | > 100 µM (inactive) | > 100 µM (inactive) | – | > 100 µM (inactive) | > 100 µM (inactive) | > 100 µM (inactive) | > 100 µM (inactive) | > 100 µM (inactive) | > 100 µM (inactive) | > 100 µM (inactive) | > 100 | > 100 µM (inactive) | > 100 µM (inactive) | > 100 µM (inactive) | > 100 µM (inactive) | > 100 µM (inactive)
Nc1nc2c(N)cc(C(F)(F)F)cc2nc1-c1ccccc1 | > 100 µM (inactive) | > 100 µM (inactive) | 85.3 µM (inactive) | – | > 100 µM (inactive) | > 100 µM (inactive) | > 100 µM (inactive) | > 100 µM (inactive) | > 100 µM (inactive) | > 100 µM (inactive) | > 100 | > 100 µM (inactive) | > 100 µM (inactive) | > 100 µM (inactive) | > 100 µM (inactive) | > 100 µM (inactive)
CCc1cccc(C(C)C)c1NC(=O)C(=O)C1C(=O)NC(=O)NC1=O | > 100 µM (inactive) | > 100 µM (inactive) | > 100 µM (inactive) | > 100 µM (inactive) | > 100 µM (inactive) | > 100 µM (inactive) | > 100 µM (inactive) | > 100 µM (inactive) | > 100 µM (inactive) | > 100 µM (inactive) | > 100 | > 100 µM (inactive) | > 100 µM (inactive) | > 100 µM (inactive) | > 100 µM (inactive) | > 100 µM (inactive)
CN1c2ccccc2N(C(=O)c2ccccc2)C(CC(=O)O)c2cccn21 (configuration not stated) | > 100 µM (inactive) | > 100 µM (inactive) | > 100 µM (inactive) | > 100 µM (inactive) | > 100 µM (inactive) | – | > 100 µM (inactive) | > 100 µM (inactive) | > 100 µM (inactive) | > 100 µM (inactive) | > 100 | – | > 100 µM (inactive) | > 100 µM (inactive) | > 100 µM (inactive) | 43.1 µM (inactive)
c1ccc2c(c1)CCC/C2=N\OCC1CO1 (configuration not stated) | > 100 µM (inactive) | 38.6 µM (inactive) | – | 98.4 µM (inactive) | – | – | > 100 µM (inactive) | > 100 µM (inactive) | > 100 µM (inactive) | > 100 µM (inactive) | > 100 | 47.2 µM (inactive) | > 100 µM (inactive) | > 100 µM (inactive) | 36.1 µM (inactive) | 31.8 µM (inactive)
O=C(O)c1ccc([C@@H]2C(=O)N(O)[C@@H]3C=CC[C@@H]32)cc1 | > 100 µM (inactive) | > 100 µM (inactive) | > 100 µM (inactive) | > 100 µM (inactive) | > 100 µM (inactive) | – | > 100 µM (inactive) | – | – | > 100 µM (inactive) | > 100 | – | – | > 100 µM (inactive) | > 100 µM (inactive) | > 100 µM (inactive)
Cc1ccc(S(=O)(=O)c2c(N)c3nc4ccccc4n3c3nc4ccccc4nc23)cc1 | > 100 µM (inactive) | 71.4 µM (inactive) | > 100 µM (inactive) | > 100 µM (inactive) | > 100 µM (inactive) | > 100 µM (inactive) | > 100 µM (inactive) | 6.75 µM (inactive) | 38.7 µM (inactive) | > 100 µM (inactive) | > 100 | > 100 µM (inactive) | > 100 µM (inactive) | 7.59 µM (inactive) | > 100 µM (inactive) | –
Cc1ccc(-n2c(=S)[nH]c3ccc(Br)cc3c2=O)cc1 | > 100 µM (inactive) | > 100 µM (inactive) | > 100 µM (inactive) | > 100 µM (inactive) | – | > 100 µM (inactive) | – | > 100 µM (inactive) | > 100 µM (inactive) | > 100 µM (inactive) | > 100 | > 100 µM (inactive) | > 100 µM (inactive) | > 100 µM (inactive) | – | > 100 µM (inactive)
CCOC(OC1=C(C#N)CCC1)C(C)[Se]c1ccccc1 (configuration not stated) | 67.8 µM (inactive) | 26.5 µM (inactive) | 13.5 µM (inactive) | 42.2 µM (inactive) | 40.6 µM (inactive) | 11.6 µM (inactive) | 15.8 µM (inactive) | 6.41 µM (inactive) | 14.9 µM (inactive) | 12.7 µM (inactive) | 15.9 | 18.8 µM (inactive) | 36.4 µM (inactive) | > 100 µM (inactive) | 59.7 µM (inactive) | 18 µM (inactive)
CCCCCCCCOCC(CO)OCCCCCCCC (configuration not stated) | 18.9 µM (inactive) | 20 µM (inactive) | – | 20.6 µM (inactive) | 19.2 µM (inactive) | > 10 µM (inactive) | 17.9 µM (inactive) | 17.3 µM (inactive) | 19.2 µM (inactive) | 19.6 µM (inactive) | 15.9 | 19.4 µM (inactive) | 15.8 µM (inactive) | 21.6 µM (inactive) | 30.5 µM (inactive) | –
CC(=O)O[C@]12CCC[C@H]1C1(O)C(O)CCC[C@H]12 (some centres not stated) | > 100 µM (inactive) | > 100 µM (inactive) | > 100 µM (inactive) | > 100 µM (inactive) | > 100 µM (inactive) | > 100 µM (inactive) | > 100 µM (inactive) | > 100 µM (inactive) | > 100 µM (inactive) | > 100 µM (inactive) | > 100 | > 100 µM (inactive) | > 100 µM (inactive) | > 100 µM (inactive) | – | > 100 µM (inactive)
COC(CN1C=C(Sc2ccccc2)CC1)OC | 30.8 µM (inactive) | 29.9 µM (inactive) | – | 24.8 µM (inactive) | 31 µM (inactive) | – | 18.9 µM (inactive) | – | 34 µM (inactive) | 35.9 µM (inactive) | 37.7 | 29.5 µM (inactive) | 31.7 µM (inactive) | 47.3 µM (inactive) | 41.4 µM (inactive) | 20.8 µM (inactive)
C/C=C(/CCCCNCCCC)[Si](C)(C)C | 15.3 µM (inactive) | 17.5 µM (inactive) | 11.9 µM (inactive) | 3.94 µM (inactive) | 15.8 µM (inactive) | 13.4 µM (inactive) | 13.3 µM (inactive) | 13.5 µM (inactive) | – | 16.9 µM (inactive) | 14.4 | 12.4 µM (inactive) | 15.6 µM (inactive) | – | – | 8.65 µM (inactive)
